Read-outs that look alike come from different tables or passages of the source.
Assays:
PDC [1] = experiment: Glucocorticoid induced cell death in lupus prone (NZB×NZW)F1 mice treated with DEX plus IRS; format: in vivo, mouse; conditions: DEX 500 μg plus IRS 100 μg, spleen
Protocol: Next, the ability of immunoregulatory sequences to restore responsiveness to glucocorticoid treatment in lupus prone mice (NZB×NZW)F1 was evaluated.
To test whether IRPs comprising an IRS restore sensitiveness to glucocorticoid induced cell death in autoimmune prone animals, Lupus prone mice (NZB×NZW)F1 mice treated with 500 μg of Dexthametasone (DEX) alone or DEX (500 μg) plus IRS (SEQ ID NO: 123) (100 μg) or DEX (500 μg) plus IRS (SEQ ID NO: 123) (100 μg) or DEX (500 μg) plus CTRL oligo (100 μg). Viability of the different cell type was evaluated as described in Example 9.
Cells were identified to be PDC by the surface presence of B220, CD11c, and PDCA1 marker. Myeloid dendritic cells were identified as to be CD11c positive and B220 negative. B-cells were identified as B220 positive cells and CD11c negative. Monocytes were identified as CD11b positive. […] IRS restored sensitiveness to glucocorticoid induced cell death in autoimmune prone animals.

PDC [2] = experiment: In vivo PDC sensitivity to glucocorticoid in 129 mice treated with DEX plus CpG plus IRS; parameters: species or system mouse; conditions: DEX 1000 μg plus CpG 50 μg plus IRS 100 μg
Protocol: To investigate whether IRPs comprising an IRS restore in vivo PDC sensitivity to glucocorticoid in mice treated with CpG-TLR9 ligand, 129 mice were treated with the glucocorticoid Dexthametasone (DEX; 1000 μg) alone or DEX (1000 μg) plus a immunostimulatory sequence CpG-C ISS C274 (“ISS”; […]. Viability of the different cell type was evaluated as described in Example 9.
Cells were identified to be PDC by the surface presence of B220, CD11c, and PDCA1 marker. Myeloid dendritic cells were identified as to be CD11c positive and B220 negative. B-cells were identified as B220 positive cells and CD11c negative. Monocytes were identified as CD11b positive. Similar results were obtained using blood (data not shown). […] IRPs comprising an IRS restored in vivo PDC sensitivity to glucocorticoid in mice treated with CpG-TLR9 ligand.

[3] = system: plasmacytoid dendritic cells (PDCs); format: cell-based, human
[4] = system: cells infiltrating inflamed skin; experiment: Tape-stripping skin inflammation in 129 mice, gene expression of infiltrating cells by Taqman; format: in vivo, mouse; conditions: IRS 100 μg s.c. or i.v. or locally
Protocol: PDC infiltrate the inflamed mouse skin. 129 mice were mechanical stripped 12 times with tape or left untreated as control. After 16 hr mice were euthanized and the skin was collected and digested for 1 hr with a solution containing Liberase 0.28 u/ml and the cellular content was analyzed by flow cytometry. A) depicts an example of the facs plot of plasmacytoid dendritic cells PDC were defined to be CD11c+, […]) Cells infiltrating the skin were stimulated in vitro with an immunostimulatory sequence […] ID NO:125), wherein upper case letters represent PS […] lower case letters represent PO linkages) (1 μM) and IFN-α was measured in the supernatant by ELISA. Cells infiltrating inflamed skin show an IFN-α inflammatory gene signature which is preventable by treatment with IRS. Skin of 129 mice was mechanical inflamed by tape stripping as described in FIG. 39. Mice were stripped only or stripped and treated with IRS (SEQ ID NO:123) (100 μg) either administered s.c. or i.v. or locally on the inflamed skin. A group of mice was left completely untreated to serve as controls. Skin was processed as described in FIG. 39 and RNA was extracted from the infiltrating cells using an RNA kit from Quiagen according to manufacture instruction. Gene expression of specific genes was measured by Taqman. […] IRS can target skin inflammation in vivo.

[5] = system: IFN-α production in PDC cells; format: cell-based, human
[6] = influenza virus and SEQ ID NO:123 compared to influenza virus alone, hydroxycortisone 1×10^−8 M
[7] = influenza virus, no hydroxycortisone present

## 5′-TGCTCCTGGAGGGGTTGT-3′ (chemistry not given here) [SEQ ID NO:123]
PDC [1]
  sensitiveness to glucocorticoid induced cell death in autoimmune prone animals: restored
PDC [2]
  in vivo PDC sensitivity to glucocorticoid in mice treated with CpG-TLR9 ligand: restored
[3]; HSV plus SEQ ID NO:123 versus HSV
  reduction in the amount of hydroxycortisone necessary to achieve 50% death of PDCs: 37 fold
[3]; ISS plus SEQ ID NO:123 versus ISS
  reduction in the amount of hydroxycortisone necessary to achieve 50% death of PDCs: 23 fold
[3]; combination with influenza virus, hydroxycortisone 1×10^−6 M, 48H
  percent survival of PDCs compared to influenza virus alone: statistically significant decrease
[3]; [6]
  decrease in survival of PDC cells: 23%
[3]; influenza virus plus SEQ ID NO:123 versus influenza virus
  reduction in the amount of hydroxycortisone necessary to achieve 50% death of PDCs: 204 fold
[3]; [7]
  difference in PDC survival: no difference
[4]
  IFN-α inflammatory gene signature of cells infiltrating inflamed skin: preventable
[5]; [6]
  IFN-α production inhibited: 92%
[5]; [7]
  IFN-α inhibition: completely inhibited

Source: patent US9476053B2, “Methods and compositions for inhibition of immune responses and autoimmunity” (Dynavax Technologies Corporation, priority 2007, dated 2016)
